Experimental data taken from the supplement of paper PMC10307832.

Tests used:
Assay in all cases: relative viability (nuclei count vs DMSO), 5 days (fraction); higher = more cells survive
[1] = compound: CCn1c(-c2nonc2N)nc2cnc(Oc3cccc(NC(=O)c4ccc(OCCN5CCOCC5)cc4)c3)cc21 + O=C(CCCCCCC(=O)Nc1ccccc1)NO [Vorinostat] (partner 1 µM)
Procedure, shortened: (§1)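 Relative viability divides the nuclei count in treated wells by that in vehicle wells. Lung cancer cell lines were seeded in 1536-well plates, dosed by pin tool the next day, and fixed and stained after 5 days in one step with final 0.05% Triton X-100, 1% formaldehyde and 1 ug/ml Hoechst. Dosing was a single drug or a fixed anchor-drug dose plus five library-drug doses (not always all listed) in √10 steps, and values are medians of duplicate plates imaged at 4×.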

Mirin + Vorinostat = compound: N=C1NC(=O)/C(=C/c2ccc(O)cc2)S1 [Mirin] + O=C(CCCCCCC(=O)Nc1ccccc1)NO [Vorinostat] (partner 1 µM)
Procedure, shortened: as §1

[2] = compound: CCn1c(-c2nonc2N)nc2cnc(Oc3cccc(NC(=O)c4ccc(OCCN5CCOCC5)cc4)c3)cc21 + Nc1ncn([C@H]2C[C@H](O)[C@@H](CO)O2)c(=O)n1 [Decitabine] (partner 2 µM)
Procedure, shortened: as §1

[3] = compound: CCn1c(-c2nonc2N)nc2cnc(Oc3cccc(NC(=O)c4ccc(OCCN5CCOCC5)cc4)c3)cc21 + C[C@@H](Oc1cc(-c2cnn(C3CCNCC3)c2)cnc1N)c1c(Cl)ccc(F)c1Cl [Crizotinib] (partner 1 µM)
Procedure, shortened: as §1

| Cell Line | relative viability ([1]; first compound 0.04 µM) | relative viability ([1]; first compound 0.1265 µM) | relative viability ([1]; first compound 0.4 µM) | relative viability ([1]; first compound 1.265 µM) | relative viability ([1]; first compound 4 µM) | relative viability (Mirin + Vorinostat; first compound 0.25 µM) | relative viability (Mirin + Vorinostat; first compound 0.7906 µM) | relative viability (Mirin + Vorinostat; first compound 2.5 µM) | relative viability (Mirin + Vorinostat; first compound 7.906 µM) | relative viability (Mirin + Vorinostat; first compound 25 µM) | relative viability ([2]; first compound 0.04 µM) | relative viability ([2]; first compound 0.1265 µM) | relative viability ([2]; first compound 0.4 µM) | relative viability ([2]; first compound 1.265 µM) | relative viability ([2]; first compound 4 µM) | relative viability ([3]; first compound 0.04 µM) | relative viability ([3]; first compound 0.1265 µM) | relative viability ([3]; first compound 0.4 µM) | relative viability ([3]; first compound 1.265 µM) | relative viability ([3]; first compound 4 µM) |
| --- | --- | --- | --- | --- | --- | --- | --- | --- | --- | --- | --- | --- | --- | --- | --- | --- | --- | --- | --- | --- |
| SK-MES-1 | 1.22 | 0.968 | 0.868 | 0.819 | 0.597 | 1.12 | 1.46 | 1.18 | 1.12 | 1.24 | 0.348 | 0.375 | 0.372 | 0.358 | 0.333 | 1.12 | 0.883 | 0.804 | 0.742 | 0.645 |
| NCI-H1355 | 0.653 | 0.668 | 0.413 | 0.377 | 0.313 | 0.608 | 0.696 | 0.683 | 0.605 | 0.699 | 0.31 | 0.36 | 0.358 | 0.364 | 0.307 | 1.16 | 1.11 | 1.18 | 1.01 | 1.01 |
| PC-14 | 0.912 | 0.612 | 0.64 | 0.554 | 0.62 | 0.798 | 0.638 | 0.729 | 0.719 | 0.746 | 0.238 | 0.252 | 0.217 | 0.213 | 0.286 | 0.874 | 0.884 | 0.87 | 0.683 | 0.7 |
| LK-2 | 0.522 | 0.37 | 0.168 | 0.178 | 0.156 | 0.204 | 0.234 | 0.294 | 0.207 | 0.271 | 0.382 | 0.385 | 0.191 | 0.183 | 0.29 | 0.222 | 0.236 | 0.264 | 0.242 | 0.176 |
